In data set [1] the test system is SW480 (colon carcinoma) cells. Nature of the data set: MTT cytotoxicity assay, SW480 monolayer. Format: cell-based, human. The conditions noted are these: exposure time 96 h, mean ± SD. The protocol:
(§1) CH1/PA-1 (ovarian teratocarcinoma), SW480 (colon carcinoma) and A549 (non-small cell lung cancer) cells were maintained as described in the reference. IMR-90 human fetal lung fibroblasts (from the European Collection of Authenticated Cell Cultures, Porton Down, Salisbury, UK) were cultured in Stable Cell^TM DMEM/F12 supplemented with 0.01 mg/mL human recombinant insulin (both purchased from Sigma-Aldrich) and 10% fetal bovine serum (FBS, BioWest, Nuaillé, France). Human colon carcinoma cell lines HCT116 and HT29 (both kindly provided by the Institute of Cancer Research, Department of Medicine I, Medical University of Vienna, Austria) were cultured in McCoy’s 5a medium supplemented with 4 mM L-glutamine (both purchased from Sigma-Aldrich) and 10% FBS. MCF-7 human breast adenocarcinoma cells (kindly provided by M. Ogris, Department of Pharmaceutical Sciences, University of Vienna, Austria) were maintained in DMEM (high glucose) supplemented with 4 mM L-glutamine, 0.1 mg/mL human insulin (all purchased from Sigma-Aldrich) and 10% FBS. All cell lines were grown as monolayers in 75 cm^2 culture flasks (CytoOne, Starlab, Hamburg, Germany) at 37 °C in a humidified atmosphere containing 5% CO2.
(§2) Exponentially growing cells were plated into 96-well microculture plates (CytoOne, tissue culture treated, Starlab, Hamburg, Germany) in densities of 1 × 10^3 CH1/PA-1, 2 × 10^3 SW480, 3 × 10^3 A549 and 7 × 10^3 IMR-90 cells per well (each in 100 µL). After a 24 h preincubation, drugs were added in serial dilution to give a final volume of 200 µL/well and exposed for 96 h. At the end of the exposure, the drug solutions were replaced by 100 µL RPMI 1640/MTT mixture (7:1 ratio). MTT (3-(4,5-dimethylthiazol-2-yl)-2,5-diphenyl-2H-tetrazolium bromide), (Acros Organics, Geel, Belgium) solution was prepared in phosphate-buffered saline (5 mg/mL) and mixed with RPMI1640 medium supplemented with 4 mM L-glutamine (both from Sigma-Aldrich) and 10% FBS. After 4 h incubation, the formazan crystals were solubilized in 150 µL of DMSO per well. Absorbance was measured at 550 nm (and at 690 nm as a reference) with a microplate reader (ELx808, BioTek, Winoosky, VT, USA) and Gen5^TM 3.08 software (BioTek). The 50% inhibitory concentrations (IC50) relative to untreated controls were interpolated from concentration-effect curves. At least three biologically and technically independent experiments were performed.
(Tetrazolium dyes change colour on reduction, which living cells bring about.)

Data set [2] in a line: Solubility in PBS (1% DMSO). Format: physicochemical. As to the method: Stock solutions in DMSO of compounds 1–10 were utilized to determine the solubility in PBS by adding 1 vol% of the stock solution to a suitable amount of PBS. […] UV/Vis data were recorded on a Perkin Elmer Lambda 650 UV/Vis Spectrophotometer with a Peltier element for temperature control.
The test system of data set [3] is A549 (non-small cell lung carcinoma) cells. The experiment in a line: MTT cytotoxicity assay, A549 monolayer. It is filed as cell-based, human. To be noted: exposure time 96 h, mean ± SD. The protocol: as §1, §2
The nature of data set [4]: Cyclic voltammetry in MeCN (W(IV) to W(V)). It is filed as physicochemical. The conditions noted are these: vs. NHE, scan rate 200 mV/s. The protocol:
NMR spectra were recorded with a Bruker FT-NMR Avance III^TM 500 MHz spectrometer at 500.10 (^1H), and 125.75 MHz (^13C) using DMSO–d6. 2D-NMR measurements were recorded utilizing standard pulse programs COSY, HSQC and HMBC. The Microanalytical Laboratory of the University of Vienna performed the elemental analyses with a Eurovector EA 3000(2009) equipped with a high temperature pyrolysis furnace (HT, Hekatech, Germany, 2009). Elemental analyses’ samples were weighed (weights from 1–3 mg were used) on a Sartorius SEC 2 ultra-micro balance with ±0.1 µg resolution. Two NIST-certified reference materials were used for calibration: sulfanilamide (C6H8N2O2S) and BBOT (2,5-bis-(5-tert-butyl-2-benzoxazol-2-yl)-thiophenone, C26H26N2O2S). The limit of quantification (LOQ) was 0.05 w% for C, H, N and 0.02 w% for S. For samples without N and/or S, the content of these elements was determined and verified to be below the LOQ. X-ray diffraction analyses were carried out on a Bruker X8 APEX II CCD diffractometer at 100 K. ESI-MS were recorded on a Bruker AmaZon SL ion trap mass spectrometer (Bruker Daltonics GmbH). Data were obtained and processed with Compass 1.3 and Data Analysis 4.0 (Bruker Daltonics GmbH). Infrared spectra were attained on a Bruker Vertex 70 FT-IR-spectrometer with an ATR-unit (attenuated total reflection unit) in the range of 4000–600 cm^−1. Intensities of the reported bands are described with w for weak, m for medium and s for strong; broad signals are additionally specified with the letter b in front of these abbreviations. Cyclic voltammograms (CVs) were measured in a three-electrode cell using 2 mm diameter glassy carbon disk working electrode, a platinum auxiliary electrode and an Ag|Ag^+ reference electrode containing 0.1 M AgNO3. Measurements were carried out at room temperature using an EG&G PARC potentiostat/galvanostat 273A. The solutions were deoxygenized by purging a stream of argon for 3 min through the solution and the experiment was performed under an argon atmosphere. The potentials were measured in a freshly prepared solution of (n Bu4N)[BF4] (0.1 M) in acetonitrile using ferrocene (Fe(η^5-C5H5)2) (E1/2 = +0.72 V vs. NHE) as an internal standard and are quoted relative to the normal hydrogen electrode (NHE).
The electrochemical behavior of all complexes and the precursor Cp2WCl2 was studied by cyclic voltammetry with a scan rate of 200 mV/s, from −0.5 to +1.2 or +1.5 V. Measurements were performed in triplicate. Due to low water solubility of compounds 1–10 acetonitrile (MeCN) was utilized in order to reach the 2 mM concentration.

The next data set relates to HT29 cells. The experiment in a line: Resazurin assay, HT29 2D monolayer. Format: cell-based, human. To be noted: 96 h. The protocol: as §1
For the resazurin assay in monolayer cultures, cells were seeded into 96-well microculture plates (CytoOne, tissue culture treated, Starlab, Hamburg, Germany) in densities of 2 × 10^3 HCT116, 2 × 10^3 HT29 and 4 × 10^3 MCF-7 cells per well (each in 100 µL). For tests in 3D cultures, spheroids were grown as described above. After 24 h (for monolayers) or 4 days (for spheroids) the test compounds in the appropriate medium were added in serial dilution to the plates to obtain a total volume of 200 µL/well. Wells without cells, containing medium and resazurin (Alfa Aesar, Thermo Fisher, Kandel, Germany) solution were used as blanks. After 96 h exposure 20 µL of the resazurin solution (440 µM) were added to each well, followed by a 4 h (2D) or 12 h (3D) incubation period. Resorufin fluorescence was quantified at 530 nm (and a reference wavelength of 620 nm) by using a microplate reader (Synergy HT, BioTek) with Gen5^TM 3.10 software (BioTek).
On the technique in general: The colour change of resazurin is a common sign of viable cells or microbes.

Some results are limits rather than exact numbers.

As usually defined, the IC50 is the concentration at which inhibition is half-maximal.

Turning to `Cc1occc(=S)c1[O-].F[P-](F)(F)(F)(F)F.[W+4].c1cc[cH-]c1.c1cc[cH-]c1` [Compound 2, Bis(η^5-cyclopentadienyl)[2-methyl-3-(oxo-κO)-4-(1H)-pyran-4-thionato-κS]tungsten(IV) hexafluorophosphate], the values for the IC50 (in data set [1]; in data set [3]; in the data set with HT29 cells) were 36 ± 7 µM, 36 ± 6 µM and 53 ± 9 µM, respectively. In data set [2], the “Solubility in PBS (1% DMSO)” value was 250 µg/mL. The E1/2 in data set [4] came to 1.047 V.

Turning to `F[P-](F)(F)(F)(F)F.O=c1c([O-])c(-c2ccc(Cl)cc2)oc2ccccc12.[W+4].c1cc[cH-]c1.c1cc[cH-]c1` [Compound 3, Bis(η^5-cyclopentadienyl)[2-(4-chlorophenyl)-3-(oxo-κO)-4(H)-chromen-4-oato-κO]tungsten(IV) hexafluorophosphate], the figures for the IC50 (in data set [1]; in data set [3]; with HT29 cells) were 5.4 ± 1.1 µM, 19 ± 3 µM and 17 ± 4 µM, respectively. Further, in data set [2], the “Solubility in PBS (1% DMSO)” value is 30 µg/mL. Further, the E1/2 in data set [4] is given as 1.059 V.

As to `F[P-](F)(F)(F)(F)F.[O-]c1c(-c2ccc(Cl)cc2)oc2ccccc2c1=S.[W+4].c1cc[cH-]c1.c1cc[cH-]c1` [Compound 4, Bis(η^5-cyclopentadienyl)[2-(4-chlorophenyl)-3-(oxo-κO)-4(H)-chromen-4-thionato-κS]tungsten(IV) hexafluorophosphate], the IC50 amounted to 2.4 ± 0.5 µM in data set [1], 6.3 ± 0.5 µM in data set [3] and 5.5 ± 1 µM with HT29 cells. Besides, the “Solubility in PBS (1% DMSO)” value in data set [2] was determined as 10 µg/mL. The E1/2 in data set [4] is listed as 1.082 V.

With `F[P-](F)(F)(F)(F)F.O=C([O-])c1ccccn1.[W+4].c1cc[cH-]c1.c1cc[cH-]c1` [Compound 5, Bis(η^5-cyclopentadienyl)[2-(carboxylato-κO)-pyridine-κN]tungsten(IV) hexafluorophosphate], the concentration for half-maximal inhibition (IC50) is 147 ± 21 µM in data set [1], more than 200 µM in data set [3] and more than 200 µM with HT29 cells. Further, in data set [2], the “Solubility in PBS (1% DMSO)” value was determined as 180 µg/mL. In data set [4], this compound had an E1/2 of 1.330 V.

Take `Cc1c([O-])c(=O)ccn1C.F[P-](F)(F)(F)(F)F.[W+4].c1cc[cH-]c1.c1cc[cH-]c1` [Compound 6, Bis(η^5-cyclopentadienyl)[1,2-dimethyl-3-(oxo-κO)-4-(1H)-pyridonato-κO]tungsten(IV) hexafluorophosphate]: the IC50 in data set [1] is 154 ± 29 µM; in data set [3], 141 ± 36 µM; with HT29 cells, more than 200 µM. In addition, the “Solubility in PBS (1% DMSO)” value in data set [2] was 1200 µg/mL. In data set [4], this compound came in with an E1/2 of 0.885 V.

Turning to `Cc1cc(=O)c([O-])co1.F[P-](F)(F)(F)(F)F.[W+4].c1cc[cH-]c1.c1cc[cH-]c1` [Compound 7, Bis(η^5-cyclopentadienyl)[2-methyl-5-(oxo-κO)-4-(1H)-pyran-4-ato-κO] tungsten(IV) hexafluorophosphate], the IC50 (in data set [1]; in data set [3]; in the data set on HT29 cells) was more than 200 µM each time. Moreover, the “Solubility in PBS (1% DMSO)” value in data set [2] was determined as 350 µg/mL. The compound further gave an E1/2 in data set [4] of 1.071 V.

Take `Cc1cc(=S)c([O-])co1.F[P-](F)(F)(F)(F)F.[W+4].c1cc[cH-]c1.c1cc[cH-]c1` [Compound 8, Bis(η^5-cyclopentadienyl)[2-methyl-5-(oxo-κO)-pyran-4-(1H)-thionato-κS] tungsten(IV) hexafluorophosphate]: the IC50 is 129 ± 14 µM in data set [1], more than 200 µM in data set [3] and more than 200 µM in the data set with HT29 cells. The “Solubility in PBS (1% DMSO)” value in data set [2] was determined as 410 µg/mL. This compound also yielded an E1/2 in data set [4] of 1.080 V.

Turning to `CCc1occc(=O)c1[O-].F[P-](F)(F)(F)(F)F.[W+4].c1cc[cH-]c1.c1cc[cH-]c1` [Compound 9, Bis(η^5-cyclopentadienyl)[2-ethyl-3-(oxo-κO)-4-(1H)-pyran-4-ato-κO] tungsten(IV) hexafluorophosphate], the IC50 in data set [1] was 101 ± 15 µM; in data set [3] it was more than 200 µM; in the data set with HT29 cells it was more than 200 µM. The “Solubility in PBS (1% DMSO)” value in data set [2] stood at 550 µg/mL. The same compound returned an E1/2 in data set [4] of 1.038 V.

Take `CCc1occc(=S)c1[O-].F[P-](F)(F)(F)(F)F.[W+4].c1cc[cH-]c1.c1cc[cH-]c1` [Compound 10, Bis(η^5-cyclopentadienyl)[2-ethyl-3-(oxo-κO)-4-(1H)-pyran-4-thionato-κS] tungsten(IV) hexafluorophosphate]: the values for the IC50 (in data set [1]; in data set [3]; with HT29 cells) were 13 ± 1 µM, 53 ± 8 µM and 54 ± 2 µM, respectively. Moreover, the “Solubility in PBS (1% DMSO)” value in data set [2] was found to be 320 µg/mL. Besides, the E1/2 in data set [4] is 1.064 V.

The values are drawn from article PMC10384408, “Anticancer Tungstenocenes with a Diverse Set of (O,O–), (O,S–) and (O,N–) Chelates—A Detailed Biological Study Using an Improved Evaluation via 3D Spheroid Models” (Pharmaceutics, 2023).
